Reference: ChEMBL document CHEMBL6127128, “Discovery of the First-in-Class Dual-Target ROCK/HDAC Inhibitor with Potent Antitumor Efficacy in Vivo That Trigger Antitumor Immunity” (J Med Chem, 2024)

Experiment: Toxicity against Balb/c mouse implanted with mouse 4T1 cells assessed as effect on morphological changes in kidneys at 25 to 50 mg/kg, po administered daily for 15 days by Hematoxylin-Eosin staining based analysis
Type: organism-based
Details: in vivo, 360 h, dose 25-50 mg/kg, time 15 day

With O=C(CCCCCCNC(=O)c1cc2cc(-c3cn[nH]c3)ccc2s1)NO the Activity was “Non-Toxic”.
